# Laboratory results as given in publication PMC9951321.
# Where a SMILES comes first, the peptide text is derived from it.
# Experiments:
# E. coli [1] = test: K+ out-diffusion, atomic absorption spectrometry; conditions: 4 × MIC, 1 h; untreated 13.47 µg mL^−1; n = 3
# E. coli [2] = test: PGN integrity assay (susceptibility to lysozyme-mediated lysis); conditions: cells grown with 0.625 µmol L^−1 (1/4 × MIC); 1 mg mL^−1 lysozyme, within 20 min incubation, 25 °C
# [3] = tested on: Escherichia coli ATCC 8739; test: MIC, broth micro-dilution; format: cell-based
# Escherichia coli MDR = test: MIC, broth micro-dilution; format: cell-based; conditions: for MIC: 24 h; for MIC against E. coli MDR relative to wild-type E. coli strains: fold higher than those of wild-type E. coli strains
# [4] = tested on: Salmonella Typhimurium ATCC 14028; test: MIC, broth micro-dilution; format: cell-based; conditions: 24 h
# [5] = tested on: Klebsiella pneumoniae ATCC 13883; test: MIC, broth micro-dilution; format: cell-based
# [6] = tested on: Acinetobacter baumannii ATCC 17978; test: MIC, broth micro-dilution; format: cell-based
# [7] = tested on: Pseudomonas aeruginosa ATCC 10145; test: MIC, broth micro-dilution; format: cell-based
# [8] = tested on: Enterobacter cloacae ATCC 13047; test: MIC, broth micro-dilution; format: cell-based
# [9] = tested on: Enterococcus faecium ATCC 19434; test: MIC, broth micro-dilution; format: cell-based
# [10] = tested on: Staphylococcus aureus ATCC 25923; test: MIC, broth micro-dilution; format: cell-based
# [11] = tested on: Staphylococcus aureus MRSA ATCC 43300; test: MIC, broth micro-dilution; format: cell-based; conditions: 24 h
compound,measurement,setting,value
CC[C@H](C)[C@H](NC(=O)[C@@H](N)CCCNC(=N)N)C(=O)N[C@@H](CCCCN)C(=O)N[C@H](C(=O)N[C@@H](CCCNC(=N)N)C(=O)N[C@H](C(=O)N[C@@H](Cc1c[nH]c2ccccc12)C(=O)N[C@@H](CCCNC(=N)N)C(=O)N[C@@H](CC(C)C)C(=O)N[C@@H](C)C(=O)N[C@@H](CC(C)C)C(=O)N[C@@H](CCCNC(=N)N)C(=O)N[C@@H](Cc1c[nH]c2ccccc12)C(=O)N[C@@H](CC(C)C)C(=O)N[C@@H](CCCCN)C(=O)N[C@@H](CC(C)C)C(=O)O)[C@@H](C)O)[C@@H](C)O [KTR] (H-RIKTRTWRLALRWLKL-OH),Extracellular K^+ content,E. coli [1],21.53 µg/mL
CC[C@H](C)[C@H](NC(=O)[C@@H](N)CCCNC(=N)N)C(=O)N[C@@H](CCCCN)C(=O)N[C@H](C(=O)N[C@@H](C)C(=O)N[C@H](C(=O)N[C@@H](Cc1c[nH]c2ccccc12)C(=O)N[C@@H](CCCNC(=N)N)C(=O)N[C@@H](CC(C)C)C(=O)N[C@@H](C)C(=O)N[C@@H](CC(C)C)C(=O)N[C@@H](CCCNC(=N)N)C(=O)N[C@@H](Cc1c[nH]c2ccccc12)C(=O)N[C@@H](CC(C)C)C(=O)N[C@@H](CCCCN)C(=O)N[C@@H](CC(C)C)C(=O)O)[C@@H](C)O)[C@@H](C)O [KTA] (H-RIKTATWRLALRWLKL-OH),Extracellular K^+ content,E. coli [1],18.92 µg/mL
same,Reduction of OD600 nm of treated cells with lysozyme,E. coli [2],17.2%
"NC[C@H]1O[C@H](O[C@H]2[C@H](O)[C@@H](O[C@H]3O[C@H](CO)[C@@H](O)[C@H](N)[C@H]3O)[C@H](N)C[C@@H]2N)[C@H](N)C[C@@H]1O [Tob, tobramycin]",MIC,"[3]; Escherichia coli, ATCC8739, 24 h",4.3 µM
same,MIC,Escherichia coli MDR; Escherichia coli,548 µM
same,MIC against E. coli MDR relative to wild-type E. coli strains,Escherichia coli MDR,at least 128 fold
same,MIC,[4]; Salmonella enterica,17.1 µM
same,MIC,"[5]; Klebsiella pneumoniae, ATCC13883, 24 h",2.1 µM
same,MIC,"[6]; Acinetobacter baumannii, ATCC17978, 24 h",2.1 µM
same,MIC,"[7]; Pseudomonas aeruginosa, ATCC10145, 24 h",4.3 µM
same,MIC,"[8]; Enterobacter cloacae, ATCC13047, 24 h",2.1 µM
same,MIC,"[9]; Enterococcus faecium, ATCC19434, 24 h",274 µM
same,MIC,"[10]; Staphylococcus aureus, ATCC25923, 24 h",17.1 µM
same,MIC,[11]; Staphylococcus aureus,548 µM
colistin,MIC,"[3]; Escherichia coli ATCC 8739, broth micro-dilution in MHB, 37 °C, 24 h, triplicate",3.2 µM
same,MIC,"Escherichia coli MDR; Escherichia coli MDR, multi-drug resistant clinical isolate, broth micro-dilution in MHB, 37 °C, triplicate",102.1 µM
same,MIC against E. coli MDR relative to wild-type E. coli strains,Escherichia coli MDR,≥ 32 fold
same,MIC,"[4]; Salmonella Typhimurium ATCC 14028, broth micro-dilution in MHB, 37 °C, triplicate",6.4 µM
same,MIC,"[5]; Klebsiella pneumoniae ATCC 13883, broth micro-dilution in MHB, 37 °C, 24 h, triplicate",12.8 µM
same,MIC,"[6]; Acinetobacter baumannii ATCC 17978, broth micro-dilution in MHB, 37 °C, 24 h, triplicate",1.6 µM
same,MIC,"[7]; Pseudomonas aeruginosa ATCC 10145, broth micro-dilution in MHB, 37 °C, 24 h, triplicate",6.4 µM
same,MIC,"[8]; Enterobacter cloacae ATCC 13047, broth micro-dilution in MHB, 37 °C, 24 h, triplicate",204.2 µM
same,MIC,"[9]; Enterococcus faecium ATCC 19434, broth micro-dilution in MHB, 37 °C, 24 h, triplicate",204.2 µM
same,MIC,"[10]; Staphylococcus aureus ATCC 25923, broth micro-dilution in MHB, 37 °C, 24 h, triplicate",12.8 µM
same,MIC,"[11]; Staphylococcus aureus MRSA ATCC 43300, broth micro-dilution in MHB, 37 °C, triplicate",51.1 µM
